Key:
[1] = tested on: hESC; test: hESC differentiation into neuroectoderm / neural precursor cells (nestin immunoblot, rosettes); type: cell-based, human
Protocol: FIG. 5A. hESC were grown in TESR1 media-Li in the presence of E2 (10 nM), P4 (2 μM) or E2 (10 nM)+P4 (2 μM) for 6 d and cell proliferation measured using the trypan blue assay. Results are expressed as mean±SEM, n=3 (*p<0.05, **p<0.005 compared to 6 d control). FIG. 5B. Equal amounts of protein from cell lysates of hESC treated for 9 d as described above were analyzed by immunoblot using a monoclonal antibody against nestin (clone 10C2; Chemicon, CA, USA). FIG. 5C. hESC were cultured for 4 days, enzymatically lifted and placed into EB media (containing serum) and rocked gently for an additional 4 days prior to being placed in one of two neural induction medias for an additional 11 days, where P4 was either absence or present. During this transition from EB to rosettes, colony structures treated with P4 also were treated with a Progesterone Receptor (PR) antagonist (RU-486; 20 μM) for 11 days. At 19 day, morphological observation and molecular analysis were performed. (i) Control structure, a minimum of three rosette structures were observed inside the cystic cavity (arrows). (ii) hESC structure in the absence of P4 (no rosettes) (iii) PR antagonist treated rosettes (no rosettes; RU-486, 20 μM). FIG. 5D. Equal amounts of protein from cell lysates of above structures were analyzed by immunoblot for nestin.
These structures are predominantly composed of NPCs (NSCs) akin to those that form the neural tube and can be further differentiated into various neural lineages. To understand which hormonal signals regulate the specification of hESC into NSCs, we closely examined the composition of the medias and supplements that had been developed by trial and error for the maintenance of hESC, and their differentiation first into embryoid bodies (EBs) and then into NPC. We identified P4 in the B27 supplement as being necessary and sufficient for the survival and differentiation of late embryonic neurons in vitro (E18 primary hippocampal/cortical/striatal neurons). […]

[2] = tested on: human embryonic stem cells (hESC); test: hESC proliferation, trypan blue assay; type: cell-based; settings: 6 d; E2 (10 nM), P4 (2 μM); compared to untreated control cells
Protocol: We therefore tested whether P4 was essential for the induction of NPC from hESC. hESC were treated with P4, E2 (which upregulates P4 receptor (PR) expression), or a combination of E2+P4.

[3] = tested on: male Sprague Dawley rats with craniectomy or controlled cortical impact (CCI) injury; test: Plasma steroid concentrations after craniectomy (Sham) or CCI injury, hCG with or without RU-486; type: in vivo, rat
Protocol: Male Sprague Dawley (SD) rats (n=58, 5-6-months old) were acquired from Harlan Laboratories Inc. (Madison, WI) and acclimated to the environment over 2 days. Rats were then weighed and handled for no less than 5 min each for 5 consecutive days and daily thereafter while being housed, fed and maintained on a 12-hour reverse light/dark cycle. The Institutional Animal Care and Use Committee (Animal Component of Research Protocol) at the William S. Middleton Veterans Administration Hospital approved the procedures used in this study and the research was conducted in an AAALAC-approved facility. Experimenters were blinded as to the identity of the animals throughout injections, blood collections, and body weight and hormone data analyses.
All surgical procedures were carried out under isoflurane gas anesthesia (5% for induction; 1.5-3.0% for maintenance, craniectomy ˜15-30 min duration; craniectomy+CCI injury ˜25-45 min duration). An anesthesia chamber was used for induction and a nose cone was used for maintenance.
Anesthetized rats were mounted in a Kopf stereotaxic device (Model 900; Tujunga, CA), where the animal's head was held in place by non-traumatic ear bars and a bite bar. Anesthesia was maintained by nose cone while the head was shaved and sterilized with 70% ethanol and Betadine™ (Purdue Products L.P., Stamford, CT) antiseptic solution. Throughout surgery anesthesia levels were monitored closely and were frequently adjusted as need, based on heart rate, respiration rate and oxygen saturation. A homeothermic blanket control unit (Harvard Apparatus, Holliston, MA) was used to monitor body temperature and to prevent hypothermia throughout surgery.
Under aseptic conditions, the cranium and its bony landmarks including bregma (β) and lambda (λ) were exposed by making a midline incision along the scalp into the skin and fascia covering the skull. A 6 mm diameter craniectomy was centered on the midline at 2.5 mm anterior to β. The cortical impact was made at 2.5 mm anterior to β over the midline of the medial frontal cortex with an Impact One™ Stereotaxic CCI instrument (Leica, Buffalo Grove, IL), using a 5 mm impactor (bit size), traveling at 2.25 m/s (velocity), extending 3 mm below the cortical surface (impact depth) for 100 ms (dwell time). Sham-injured groups received the same surgical procedures up to and including craniectomy but no CCI injury. After surgery, the rats were placed on a heating pad, monitored closely and upon awakening were tested 30 min later for righting reflex to assess any immediate effects of craniectomy or CCI injury on righting ability, and then returned to their home cages.
Baseline blood draws were collected from all animals. […] Pregnyl® is a highly purified pyrogen-free preparation obtained from the urine of pregnant females. Each vial contains 10,000 USP units of sterile dried powder with 5 mg monobasic sodium phosphate and 4.4 mg dibasic sodium phosphate that is diluted in solvent containing water, 0.56% sodium chloride and 0.9% benzyl alcohol (www.drugs.com/pro/pregnyl.html).
Rats were anesthetized (between 9:00 a.m.-12:00 noon) and their tails placed in a 200 mL beaker filled with warm water (≤44° C.) for 5 min. The tail was clean with 70% alcohol, the minimal amount of the tail tip snipped with a blade, and/or the wound reopened by removal of the scab for subsequent bleeds, and ˜1 mL of whole blood was collected directly into EDTA tubes at baseline (PID-10) and at PID, 1, 11, 19 and 29. […] Animals were injected with Lactate Ringers solution (5 mL) for fluid resuscitation. At the terminal bleed (day 29), blood also was collected via heart puncture. Collected blood was immediately centrifuged at 4,000 g for 10-20 min and the plasma aliquoted into Eppendorf tubes for storage at −80° C.

Molecule	nestin expression (immunoblot) ([1]; hESC treated for 9 d, E2 (10 nM), P4 (2 μM))	decrease in rate of hESC proliferation [2] [%]	nestin (immunoblot) in PR-antagonist treated structures ([1]; RU-486 20 μM)	neuroectodermal rosette formation ([1]; RU-486 20 μM for 11 days, in presence of P4)	plasma P4 concentration ([3]; CCI injured animals with RU-486 pretreatment, PID 1) [ng/mL]	plasma T concentration ([3]; CCI injured animals with RU-486 pretreatment, PID 11) [ng/mL]	plasma T concentration ([3]; CCI injured animals with RU-486 pretreatment, PID 19) [ng/mL]	effect on circulating 11-DOC and corticosterone ([3]; CCI injured animals, RU486 pretreatment)	effect on corticosterone ([3]; Sham surgery, saline and hCG-treated animals, RU486 pretreatment (except PID 19 in Sham+hCG))	circulating 11-DOC ([3]; Sham+hCG rats with RU486 pretreatment (40 mg/kg i.p.), PID 1) [ng/mL]	plasma P4 concentration ([3]; Sham+hCG with RU486 pretreatment, PID 29) [ng/mL]	effect on 11-DOC ([3]; Sham+saline with RU486 pretreatment)
CC(=O)[C@H]1CC[C@H]2[C@@H]3CCC4=CC(=O)CC[C@]4(C)[C@H]3CC[C@]12C [P4, progesterone]	increased the neuroectodermal marker nestin	29	–	–	–	–	–	–	–	–	–	–
11β-[p-(Dimethylamino)phenyl]-17α-(1-propynyl)estra-4,9-dien-17β-ol-3-one [RU-486]	–	–	absence of nestin	No rosettes were detected	40.9 ± 10.0	4.5 ± 1.5	3.1 ± 1.1	no significant effects	prevented Sham surgery-induced decreases in corticosterone through PID 29	282.4 ± 28.0	8.5 ± 4.5	preventing the Sham+saline treatment-induced decrease in 11-DOC through PID29
C[C@]12CC[C@@H]3c4ccc(O)cc4CC[C@H]3[C@@H]1CC[C@@H]2O [E2, estradiol]	–	16	–	–	–	–	–	–	–	–	–	–

From US20240115662A1, “METHODS OF TREATING HYPOGONADOTROPIC HYPOGONADISM AND COGNITION IMPAIRMENT FOLLOWING A TRAUMATIC BRAIN INJURY” (WISCONSIN ALUMNI RESEARCH FOUNDATION, priority 2021, published 2024)
